In patent US7780873B2, “Bioactive complexes compositions and methods of use thereof” (Texas A&M University System, priority 2004, dated 2010):
Like-named read-outs stand apart in the source and are kept apart here.

Tests used:
[1] = rat duodenal infusion, cited from earlier work
[2] = Lipid oxidation of O/W Menhaden oil-based emulsions; assay type: physicochemical; settings: gallic acid alone or with coenzyme Q10; emulsified with egg yolk PC; pH 6.0; GC
[3] = system: human promyelocytic leukemia HL-60 cells; settings: cited from earlier work
[4] = from emulsions containing corn oil

pro-/antioxidative properties of control samples [2] | Compound | average recovery in the lymph [1, 4] | average recovery in the lymph ([1]; from olive oil emulsion) | apoptotic cell death [3]
– | CC1=C(/C=C/C(C)=C/C=C/C(C)=C/C=C/C=C(C)/C=C/C=C(C)/C=C/C2=C(C)C(=O)[C@@H](O)CC2(C)C)C(C)(C)C[C@H](O)C1=O [astaxanthin] | 13% | 20% | –
– | CC(C)=CCC/C(C)=C/C=C/C(C)=C/C=C/C(C)=C/C=C/C=C(C)/C=C/C=C(C)/C=C/C=C(\C)CCC=C(C)C [LYC, lycopene] | 2.5% | 6% | –
prooxidative properties | O=C(O)c1cc(O)c(O)c(O)c1 [gallic acid] | – | – | induced apoptotic cell death
